Assay results taken from BindingDB's records for doi:10.1021/jm9606599 (National Institute of Diabetes and Digestive and Kidney …, 1997).

Assay: Sigma receptor binding was determined by labeling with radioligand [3H](+)-pentazocine on frozen membranes obtained from frozen guinea pig brain

## Fc1ccc(C(OCCN2CCN(C/C=C/c3ccccc3)CC2)c2ccc(F)cc2)cc1
  IC50: 51 nM

## Fc1ccc(C(OCCN2CCN(CCCc3ccco3)CC2)c2ccc(F)cc2)cc1 [1-{2-[Bis-(4-fluoro-phenyl)-methoxy]-ethyl}-4-(3-furan-2-yl-propyl)-piperazine]
  IC50: 62 nM

## Fc1ccc(C(OCCN2CCN(CCCc3cccnc3)CC2)c2ccc(F)cc2)cc1 [1-{2-[Bis-(4-fluoro-phenyl)-methoxy]-ethyl}-4-(3-pyridin-3-yl-propyl)-piperazine]
  IC50: 79 nM

## Fc1ccc(C(OCCN2CCN(CCCc3cccs3)CC2)c2ccc(F)cc2)cc1 [1-{2-[Bis-(4-fluoro-phenyl)-methoxy]-ethyl}-4-(3-thiophen-2-yl-propyl)-piperazine]
  IC50: 38 nM

## Fc1ccc(C(OCCN2CCN(C/C=C/c3ccco3)CC2)c2ccc(F)cc2)cc1 [1-{2-[Bis-(4-fluoro-phenyl)-methoxy]-ethyl}-4-((E)-3-furan-2-yl-allyl)-piperazine]
  IC50: 43 nM

## Fc1ccc(C(OCCN2CCN(C/C=C/c3cccnc3)CC2)c2ccc(F)cc2)cc1 [1-{2-[Bis-(4-fluoro-phenyl)-methoxy]-ethyl}-4-((E)-3-pyridin-3-yl-allyl)-piperazine]
  IC50: 59 nM

## Fc1ccc(C(OCCN2CCN(C/C=C/c3cccs3)CC2)c2ccc(F)cc2)cc1 [1-{2-[Bis-(4-fluoro-phenyl)-methoxy]-ethyl}-4-((E)-3-thiophen-2-yl-allyl)-piperazine]
  IC50: 41 nM
